Data: the SangsterLogP compilation

experiment: method code SF, from DOI: 10.1016/0223-5234(96)88223-7

Row | SMILES | logP
1 | Cc1ccc(-c2nc3ccccc3[nH]2)cc1 | 3.67
2 | COc1ccccc1-c1nc2ccccc2[nH]1 | 3.02
3 | COc1ccc(-c2nc3ccc(C)cc3[nH]2)c(OC)c1 | 3.78
4 | CCc1ccc(-c2nc3ncccc3[nH]2)cc1 | 3.42
5 | Clc1ccc(Cc2nc3ccc(Cl)cc3[nH]2)cc1 | 5.18
6 | CC(C)(C)c1ccc(-c2nc3ncccc3[nH]2)cc1 | 4.82
7 | Fc1ccc(-c2nc3ncccc3[nH]2)cc1 | 2.52
8 | Clc1ccc2nc(Cc3ccc(Br)cc3)[nH]c2c1 | 5.38
9 | Cc1ccc(-c2nc3ccc([N+](=O)[O-])cc3[nH]2)c(C)c1 | 4.1
10 | COc1ccc(Cc2nc3ccc([N+](=O)[O-])cc3[nH]2)cc1 | 3.48
11 | Cc1ccc(-c2nc3ncccc3[nH]2)cc1 | 3.02
12 | Cc1ccc(Cc2nc3ccc(Cl)cc3[nH]2)cc1 | 5.21
13 | Cc1ccccc1-c1nc2ccc([N+](=O)[O-])cc2[nH]1 | 3.42
14 | Clc1ccc(-c2nc3ncccc3[nH]2)cc1 | 2.95
15 | Nc1ccc(Cc2nc3ccc(Cl)cc3[nH]2)cc1 | 3.2
